Where two headings read alike, the source gives them in different places.
Assays:
[1] = tested on: H929 human cancer cell lines; assay: Cellular viability / proliferation (Cell TiterGlo, 72 h); assay type: cell-based
Summary of the method: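 Cells were seeded at 1,000 cells/well in medium with 10% FBS and dosed 24 h later with a 2-fold serial dilution of compound (top concentration 50 μM, final DMSO <1%).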

Mcl-1 = Mcl-1 (Homo sapiens (Human), UniProt Q07820); assay: Fluorescence polarization anisotropy (FPA) competition assay, FITC-Bak or FITC-Bim BH3 peptide; assay type: binding; details: read-out: Ki for Inhibition of Mcl-1 by FPA assay
Chain of Mcl-1 (Q07820 172-327): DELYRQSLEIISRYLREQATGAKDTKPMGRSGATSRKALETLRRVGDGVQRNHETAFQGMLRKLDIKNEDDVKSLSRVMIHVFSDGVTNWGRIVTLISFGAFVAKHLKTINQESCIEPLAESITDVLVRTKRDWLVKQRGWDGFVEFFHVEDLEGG

[2] = Homo sapiens, NCI-H929, 72 h, read-out: GI50 on cellular proliferation of H929 human cancer cell lines, H929 cells, 72 h, Cell TiterGlo, 10% FBS

SMILES | GI50 [1, 2] | Ki (Mcl-1) | GI50 ([1]; read-out: GI50 on cellular proliferation of H929 human cancer cell lines, H929 cells, 72 h, Cell TiterGlo, 10% FBS)
Cc1cc(N2C[C@@H](C)n3c(c(CCCOc4cc(C)c(Cl)c(C)c4)c4ccc(Cl)c(-c5c(C)nn(C)c5C)c43)C2=O)c2c(c1)cc(C(=O)O)n2Cc1cccc(C)n1 [Example 457, (R)-7-(7-Chloro-10-(3-(4-chloro-3,5-dimethylphenoxy)propyl)-4-methyl-1-oxo-6-(1,3,5-trimethyl-1H-pyrazol-4-yl)-3,4-dihydropyrazino[1,2-a]indol-2(1H)-yl)-5-methyl-1-((6-methylpyridin-2-yl)methyl)-1H-indole-2-carboxylic acid] | < 0.2 µM | < 0.001 µM | –
Cc1cc(OCCCc2c3n(c4c(-c5c(C)nn(C)c5C)c(Cl)ccc24)CCCN(c2cc(C(=O)O)c4c(Cl)cn(C)c4c2)C3=O)cc(C)c1Cl [Example 3, 3-Chloro-6-(8-chloro-11-(3-(4-chloro-3,5-dimethylphenoxy)propyl)-1-oxo-7-(1,3,5-trimethyl-1H-pyrazol-4-yl)-4,5-dihydro-1H-[1,4]diazepino[1,2-a]indol-2(3H)-yl)-1-methyl-1H-indole-4-carboxylic acid] | 6.6 µM | 0.0011 µM | –
Cc1cc(OCCCc2c3n(c4c(-c5c(C)n[nH]c5C)c(Cl)ccc24)[C@H](C)CN(c2cc(C(=O)O)c4cnn(C)c4c2)C3=O)cc(C)c1Cl [Example 93, (R)-6-(7-chloro-10-(3-(4-chloro-3,5-dimethylphenoxy)propyl)-6-(3,5-dimethyl-1H-pyrazol-4-yl)-4-methyl-1-oxo-3,4-dihydropyrazino[1,2-a]indol-2(1H)-yl)-1-methyl-1H-indazole-4-carboxylic acid] | 7.5 µM | < 0.001 µM | –
Cc1cc(OCCCc2c3n(c4c(-c5c(C)nn(C)c5C)c(Cl)ccc24)[C@H](C)CN(c2cccc4cc(C(=O)O)[nH]c24)C3=O)cc(C)c1Cl [Example 242, 7-[(4R)-7-chloro-10-[3-(4-chloro-3,5-dimethyl-phenoxy)propyl]-4-methyl-1-oxo-6-(1,3,5-trimethylpyrazol-4-yl)-3,4-dihydropyrazino[1,2-a]indol-2-yl]-1H-indole-2-carboxylic acid] | – | < 0.001 µM | 1.3 µM
Cc1cc(OCCCc2c3n(c4c(-c5c(C)nn(C)c5C)c(Cl)ccc24)[C@H](C)CN(c2cc(OCCN4CCN(C)CC4)cc4cc(C(=O)O)n(C)c24)C3=O)cc(C)c1Cl [Example 453, (R)-7-(7-Chloro-10-(3-(4-chloro-3,5-dimethylphenoxy)propyl)-4-methyl-1-oxo-6-(1,3,5-trimethyl-1H-pyrazol-4-yl)-3,4-dihydropyrazino[1,2-a]indol-2(1H)-yl)-1-methyl-5-(2-(4-methylpiperazin-1-yl)ethoxy)-1H-indole-2-carboxylic acid] | 0.33 µM | 0.0017 µM | –
Cc1cc(OCCCc2c3n(c4c(-c5c(C)nn(C)c5C)c(Cl)ccc24)[C@H](C)CN(c2cn(C(C)C)c4ccc(C(=O)O)cc24)C3=O)cc(C)c1Cl [Example 166, (R)-3-(7-Chloro-10-(3-(4-chloro-3,5-dimethylphenoxy)propyl)-4-methyl-1-oxo-6-(1,3,5-trimethyl-1H-pyrazol-4-yl)-3,4-dihydropyrazino[1,2-a]indol-2(1H)-yl)-1-isopropyl-1H-indole-5-carboxylic acid] | 1.4 µM | < 0.001 µM | –
Cc1cc(OCCCc2c3n(c4c(-c5c(C)nn(C)c5C)c(Cl)ccc24)[C@H](C)CN(c2cc(C(=O)O)cc4c2OCO4)C3=O)cc(C)c1Cl [Example 33, (R)-7-(7-chloro-10-(3-(4-chloro-3,5-dimethylphenoxy)propyl)-4-methyl-1-oxo-6-(1,3,5-trimethyl-1H-pyrazol-4-yl)-3,4-dihydropyrazino[1,2-a]indol-2(1H)-yl)benzo[d][1,3]dioxole-5-carboxylic acid] | 0.65 µM | < 0.001 µM | –

Reference: US11596639B2, “Substituted indole Mcl-1 inhibitors” (Vanderbilt University, priority 2016, dated 2023)
